One may read the pIC50 as −log10 of the IC50, conventionally taken in molar units. Read a high pIC50 as a low IC50.

The values that follow come from patent US9540400B2, “Compounds as diacylglycerol acyltransferase inhibitors” (GlaxoSmithKline Intellectual Property (No. 2) Limited, priority 2011, dated 2017).

Molecules are shown by their SMILES. pIC50: −log10 of the molar value.

In the experiment the target is T1, Human DGAT1 (Homo sapiens, UniProt O75907).
T1 construct: made in house; host or cells: Sf9 insect cells (baculovirus); microsomes
T1 sequence (O75907 1-488): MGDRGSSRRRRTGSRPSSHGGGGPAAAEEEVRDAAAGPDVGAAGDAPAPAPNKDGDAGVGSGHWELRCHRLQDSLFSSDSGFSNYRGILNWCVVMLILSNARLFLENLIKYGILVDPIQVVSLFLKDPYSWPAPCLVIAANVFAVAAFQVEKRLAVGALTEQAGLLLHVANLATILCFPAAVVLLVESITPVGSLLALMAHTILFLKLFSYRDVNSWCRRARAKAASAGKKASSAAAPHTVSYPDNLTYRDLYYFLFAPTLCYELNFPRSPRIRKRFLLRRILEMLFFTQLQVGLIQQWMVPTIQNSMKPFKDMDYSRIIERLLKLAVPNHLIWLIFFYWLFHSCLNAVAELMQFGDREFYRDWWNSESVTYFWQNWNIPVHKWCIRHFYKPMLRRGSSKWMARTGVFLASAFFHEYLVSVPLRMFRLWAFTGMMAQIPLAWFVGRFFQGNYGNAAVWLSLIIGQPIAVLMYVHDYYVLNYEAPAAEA
The experiment in a line: hDGAT1 lipid extraction (LE) assay, inhibition of triacylglycerol product formation. Format: biochemical. Particulars: human DGAT1 microsomes from Sf9 cells; radiolabelled tridecanoylglycerol extraction. The protocol:
Human DGAT1 was expressed in Sf9 insect cells using a baculovirus expression system. Microsomes were prepared and used as enzyme for in vitro inhibition testing in either of two formats measuring production of coenzyme A or tridecanoylglycerol product, respectively. All steps were performed at 21-23° C. All data for DGAT1 inhibition by test compounds were collected under conditions where product formation was linear with reaction time.
For inhibition of triacylglycerol product formation, 11 uL reactions were run in white Polyplate-384 (PerkinElmer6007300) starting with a 30 minute pre-reaction incubation of 5 uL of 2.2× enzyme and 1 uL of 100% DMSO containing test compound or control compound, {4-[4-(4-amino-7,7-dimethyl-7H-pyrimido[4,5-b][1,4]oxazin-6-yl)phenyl]cyclohexyl}acetic acid. Some assays were performed with inclusion of didecanoylglycerol in the pre-reaction incubation of test compounds and enzyme. Reactions were initiated after 30 minute pre-reaction incubation via addition of 5 uL of 2.2× substrate. Final reaction conditions consisted of 50 mM HEPES pH 7.5, 2 mM MgCl2, 1 mM CHAPS, 25 uM didecanoylglycerol, 0.5 uM decanoyl-CoA, 0.3 nCi/uL [^14C]-decanoyl-CoA or 0.5 nCi/uL [^3H]-decanoyl-CoA, 0.05-4 ug/mL microsomal protein, and 1% DMSO. Following 60 minute reaction incubation, reactions were stopped with 40 uL of 45% isopropanol and 50 mM sodium carbonate in water and mixed. Extraction of tridecanoylglycerol product was accomplished via addition of 30 uL Microscint-E (Perkin Elmer) and 2 hours of incubation (sealed). Plates were read on a Microbeta Microplate reader. Inhibition was normalized to controls containing DMSO or 10 uM {4-[4-(4-amino-7,7-dimethyl-7H-pyrimido[4,5-b][1,4]oxazin-6-yl)phenyl]cyclohexyl}acetic acid. IC50s were fitted using GraphPad Prism to a sigmoidal dose response.

Regarding `CCCn1cc(C(=O)C(F)(F)F)c2cc(N3CCOc4ncnc(N)c4C3=O)ccc21` [Example 63, 4-Amino-6-(1-propyl-3-(2,2,2-trifluoroacetyl)-1H-indol-5-yl)-7,8-dihydropyrimido[5,4-f][1,4]oxazepin-5(6H)-one], the pIC50 is 8.64.

For `Nc1ncnc2c1C(=O)N(c1ccc3c(ccn3-c3ccc(F)c(F)c3)c1)CCO2` [Example 74, 4-amino-6-[1-(3,4-difluorophenyl)-1H-indol-5-yl]-5H,6H,7H,8H-pyrimido[5,4-f][1,4]oxazepin-5-one], the pIC50 is 8.35.

For `CS(=O)(=O)n1ccc2cc(N3CCOc4ncnc(N)c4C3=O)ccc21` [Example 60, 4-amino-6-(1-methanesulfonyl-1H-indol-5-yl)-5H,6H,7H,8H-pyrimido[5,4-f][1,4]oxazepin-5-one], the pIC50 was 7.83.
